# “And” between values parts separate entries of the source, which are not always exact repeats. Identical values can stand only once. Like-named read-outs stand apart in the source and are kept apart here.
# What was measured:
# [1] = tested on: SK1 isolate of HIV-1; conditions: for p24 VALUES, single samples: samples 1-3; for IC50 (inhibition of cell-cell transmission): linear regression
# Excerpt: (§1) ME180 cells, a cervical epithelial cell line, were obtained from the American Type Culture Collection. These cells were thawed from liquid nitrogen and grown in RPMI 1640 medium supplemented with 10t fetal bovine serum, glutamine and antibiotics. The cells were adherent and were trypsinized (0.5% trypsin in HBSS) to remove them from the flask for passaging and use in assays. For use in the microtiter transmission inhibition assay, ME180 cells were trypsinized, washed and seeded in 96-well flat bottom microtiter plates (COSTAR) at a density of 5×10^3 cells per well. The cells were incubated at 37° C. for 24 hours prior to the tart of the assay. H9 cells chronically infected with he SK1 isolate of HIV-1 were treated with 200 μg/ml mitomycin C for 60 minutes at 37° C. After treatment the cells were washed three times with tissue culture medium. The chronically infected lymphocytes were added to each well at a density of 2×10^4 cells per well. The concentration of mitomycin C used in the treatment of the lymphocytes was chosen to allow lymphocyte survival for the period of time required to transmit virus to the uninfected ME180 cells, but to die prior to the time of assay so as not to contribute to the p24 signal used as the endpoint (see below). In the transmission assay the lytic peptides D4E1 and D2A21, with and without 150 μg/ml pig mucin, were added prior to the addition of chronically infected cells or were mixed with the chronically infected cells prior to their addition to the monolayer of ME180 cells. Mucin was included because it is an abundant constituent of the normal vaginal secretions of a human being, thus any chemotherapeutic agent targeting HIV should be active in its presence if it is to have clinical value. […] The lymphocytes and peptide were co-cultured with the ME180 cells for 6 hours and then removed by washing the ME180 monolayer four times with PBS. The plate was then incubated at 37° C. for six days. Medium was removed and changed every 48 hours during the incubation stage. No further peptide was added after the initial dose. At six days post-co-cultivation, the supernatant was removed from the wells and evaluated for the quantity of p24 antigen by ELISA. The ELISA was performed according to the manufacturer's recommendations. The amount of virus production in wells treated with various concentrations of the peptides was evaluated with appropriate cell and virus controls. Data are reported as a percent of virus control at each drug concentration. Linear regression analysis was used to calculate the […] and IC95 concentrations of the transmission inhibitor. […] TI represents the toxicity index, which is the ratio of the TC50/IC50, and is an indication of the relative concentrations window that exists between efficacy and toxicity.
# [2] = tested on: ME180 cells; experiment: toxicity (XTT) in transmission inhibition assay; conditions: for TOXICITY VALUES (XTT), single samples: samples 1-3; for TC50 (concentration at which 50% of cells are eliminated): interpolation from % CC
# Excerpt: as §1
# [3] = 0.32 μg/ml, with 150 μg/ml pig mucin
# [4] = 1 μg/ml, with 150 μg/ml pig mucin
# [5] = 3.2 μg/ml, with 150 μg/ml pig mucin
# [6] = 10 μg/ml, with 150 μg/ml pig mucin
# [7] = 32 μg/ml, with 150 μg/ml pig mucin
# [8] = 100 μg/ml, with 150 μg/ml pig mucin
substance,measurement,setting,value
dextran sulfate,"% VC (p24, percent of virus control)","[1]; 0.32 μg/ml, no mucin",5.9%
same,"p24 VALUES, MEAN","[1]; 0.32 μg/ml, no mucin",3.2 µg/mL
same,"% VC (p24, percent of virus control)",[1]; [3],7.7%
same,"p24 VALUES, MEAN",[1]; [3],4.5 µg/mL
same,"p24 VALUES, single samples",[1]; [3],5.0 µg/mL and 3.2 µg/mL and 6.1 µg/mL
same,"% VC (p24, percent of virus control)","[1]; 1 μg/ml, no mucin",7.6%
same,"p24 VALUES, MEAN","[1]; 1 μg/ml, no mucin",4.1 µg/mL
same,"% VC (p24, percent of virus control)",[1]; [4],7.8%
same,"p24 VALUES, MEAN",[1]; [4],4.9 µg/mL
same,"% VC (p24, percent of virus control)","[1]; 3.2 μg/ml, no mucin",0.0%
same,"p24 VALUES, MEAN","[1]; 3.2 μg/ml, no mucin",0.0 µg/mL
same,"p24 VALUES, single samples","[1]; 3.2 μg/ml, no mucin",0.0 µg/mL
same,"% VC (p24, percent of virus control)",[1]; [5],11.4%
same,"p24 VALUES, MEAN",[1]; [5],7.1 µg/mL
same,"% VC (p24, percent of virus control)","[1]; 10 μg/ml, no mucin",0.2%
same,"p24 VALUES, MEAN","[1]; 10 μg/ml, no mucin",0.0 µg/mL
same,"% VC (p24, percent of virus control)",[1]; [6],11.6%
same,"p24 VALUES, MEAN",[1]; [6],7.2 µg/mL
same,"% VC (p24, percent of virus control)","[1]; 32 μg/ml, no mucin",0.0%
same,"p24 VALUES, MEAN","[1]; 32 μg/ml, no mucin",0.0 µg/mL
same,"p24 VALUES, single samples","[1]; 32 μg/ml, no mucin",0.0 µg/mL
same,"% VC (p24, percent of virus control)",[1]; [7],14.6%
same,"p24 VALUES, MEAN",[1]; [7],9.0 µg/mL
same,"% VC (p24, percent of virus control)","[1]; 100 μg/ml, no mucin",0.0%
same,"p24 VALUES, MEAN","[1]; 100 μg/ml, no mucin",0.0 µg/mL
same,"p24 VALUES, single samples","[1]; 100 μg/ml, no mucin",0.0 µg/mL
same,"% VC (p24, percent of virus control)",[1]; [8],8.0%
same,"p24 VALUES, MEAN",[1]; [8],4.9 µg/mL
same,IC50 (inhibition of cell-cell transmission),[1]; no mucin,IC50 = 0.002 μg/ml
same,IC50 (inhibition of cell-cell transmission),[1]; with 150 μg/ml pig mucin,IC50 = 0.002 μg/ml
same,"% CC (XTT, percent of cell control)","[2]; 0.32 μg/ml, no mucin",95.4%
same,"TOXICITY VALUES (XTT), MEAN","[2]; 0.32 μg/ml, no mucin",0.485 O.D. @ 450/650 nm
same,"TOXICITY VALUES (XTT), single samples","[2]; 0.32 μg/ml, no mucin",0.477 O.D. @ 450/650 nm and 0.473 O.D. @ 450/650 nm and 0.504 O.D. @ 450/650 nm
same,"% CC (XTT, percent of cell control)",[2]; [3],95.4%
same,"TOXICITY VALUES (XTT), MEAN",[2]; [3],0.485 O.D. @ 450/650 nm
same,"TOXICITY VALUES (XTT), single samples",[2]; [3],0.477 O.D. @ 450/650 nm and 0.473 O.D. @ 450/650 nm and 0.504 O.D. @ 450/650 nm
same,"% CC (XTT, percent of cell control)","[2]; 1 μg/ml, no mucin",98.4%
same,"TOXICITY VALUES (XTT), MEAN","[2]; 1 μg/ml, no mucin",0.500 O.D. @ 450/650 nm
same,"TOXICITY VALUES (XTT), single samples","[2]; 1 μg/ml, no mucin",0.479 O.D. @ 450/650 nm and 0.519 O.D. @ 450/650 nm and 0.501 O.D. @ 450/650 nm
same,"% CC (XTT, percent of cell control)",[2]; [4],98.4%
same,"TOXICITY VALUES (XTT), MEAN",[2]; [4],0.500 O.D. @ 450/650 nm
same,"TOXICITY VALUES (XTT), single samples",[2]; [4],0.479 O.D. @ 450/650 nm and 0.519 O.D. @ 450/650 nm and 0.501 O.D. @ 450/650 nm
same,"% CC (XTT, percent of cell control)","[2]; 3.2 μg/ml, no mucin",91.5%
same,"TOXICITY VALUES (XTT), MEAN","[2]; 3.2 μg/ml, no mucin",0.465 O.D. @ 450/650 nm
same,"TOXICITY VALUES (XTT), single samples","[2]; 3.2 μg/ml, no mucin",0.483 O.D. @ 450/650 nm and 0.456 O.D. @ 450/650 nm and 0.457 O.D. @ 450/650 nm
same,"% CC (XTT, percent of cell control)",[2]; [5],91.6%
same,"TOXICITY VALUES (XTT), MEAN",[2]; [5],0.465 O.D. @ 450/650 nm
same,"TOXICITY VALUES (XTT), single samples",[2]; [5],0.483 O.D. @ 450/650 nm and 0.456 O.D. @ 450/650 nm and 0.457 O.D. @ 450/650 nm
same,"% CC (XTT, percent of cell control)","[2]; 10 μg/ml, no mucin",95.7%
same,"TOXICITY VALUES (XTT), MEAN","[2]; 10 μg/ml, no mucin",0.486 O.D. @ 450/650 nm
same,"TOXICITY VALUES (XTT), single samples","[2]; 10 μg/ml, no mucin",0.463 O.D. @ 450/650 nm and 0.499 O.D. @ 450/650 nm and 0.497 O.D. @ 450/650 nm
same,"% CC (XTT, percent of cell control)",[2]; [6],95.7%
same,"TOXICITY VALUES (XTT), MEAN",[2]; [6],0.486 O.D. @ 450/650 nm
same,"TOXICITY VALUES (XTT), single samples",[2]; [6],0.463 O.D. @ 450/650 nm and 0.499 O.D. @ 450/650 nm and 0.497 O.D. @ 450/650 nm
same,"% CC (XTT, percent of cell control)","[2]; 32 μg/ml, no mucin",92.5%
same,"TOXICITY VALUES (XTT), MEAN","[2]; 32 μg/ml, no mucin",0.470 O.D. @ 450/650 nm
same,"TOXICITY VALUES (XTT), single samples","[2]; 32 μg/ml, no mucin",0.444 O.D. @ 450/650 nm and 0.466 O.D. @ 450/650 nm and 0.499 O.D. @ 450/650 nm
same,"% CC (XTT, percent of cell control)",[2]; [7],92.5%
same,"TOXICITY VALUES (XTT), MEAN",[2]; [7],0.470 O.D. @ 450/650 nm
same,"TOXICITY VALUES (XTT), single samples",[2]; [7],0.444 O.D. @ 450/650 nm and 0.466 O.D. @ 450/650 nm and 0.499 O.D. @ 450/650 nm
same,"% CC (XTT, percent of cell control)","[2]; 100 μg/ml, no mucin",98.7%
same,"TOXICITY VALUES (XTT), MEAN","[2]; 100 μg/ml, no mucin",0.491 O.D. @ 450/650 nm
same,"TOXICITY VALUES (XTT), single samples","[2]; 100 μg/ml, no mucin",0.479 O.D. @ 450/650 nm and 0.500 O.D. @ 450/650 nm and 0.495 O.D. @ 450/650 nm
same,"% CC (XTT, percent of cell control)",[2]; [8],98.7%
same,"TOXICITY VALUES (XTT), MEAN",[2]; [8],0.491 O.D. @ 450/650 nm
same,"TOXICITY VALUES (XTT), single samples",[2]; [8],0.479 O.D. @ 450/650 nm and 0.500 O.D. @ 450/650 nm and 0.495 O.D. @ 450/650 nm
same,TC50 (concentration at which 50% of cells are eliminated),[2]; no mucin,TC50 = 1 μg/ml
same,TC50 (concentration at which 50% of cells are eliminated),[2]; with 150 μg/ml pig mucin,TC50 = 1 μg/ml
